ChEMBL document CHEMBL6092156, “Design and development of a series of 4-(piperazin-1-yl)pyrimidines as irreversible menin inhibitors” (Eur J Med Chem, 2024)
Converted amounts (≈) assume the structure as drawn. The source made the active and inactive calls. The rule behind the calls is not given here.

Experiments:
[1] = target: Menin/Histone-lysine N-methyltransferase MLL (Homo sapiens, UniProt O00255); assay: Inhibition of menin (unknown origin)/N-terminal FITC-labeled MLL1 peptide (unknown origin) interaction incubated for 30 min by fluorescence polarization assay; format: protein assay
MV4-11 [2] = assay: Antiproliferative activity against human menin-sensitive MV4-11 cells assessed as inhibition of cell growth incubated for 7 days by MTS assay; format: functional, cell-based; settings: MV4-11, 168 h
REH [3] = assay: Antiproliferative activity against human menin-insensitive REH cells assessed as inhibition of cell growth incubated for 7 days by MTS assay; format: functional, cell-based; settings: 168 h
[4] = Tmax in female ICR mouse at 5 mg/kg, ip by LC-MS/MS analysis; format: ADME, organism-based; settings: in vivo
[5] = Cmax in female ICR mouse at 5 mg/kg, ip by LC-MS/MS analysis; format: ADME, organism-based; settings: in vivo
[6] = AUClast in female ICR mouse at 5 mg/kg, ip by LC-MS/MS analysis; format: ADME, organism-based; settings: in vivo
[7] = Observed AUCinfinity in female ICR mouse at 5 mg/kg, ip by LC-MS/MS analysis; format: ADME, organism-based; settings: in vivo
[8] = Observed MRTinfinity in female ICR mouse at 5 mg/kg, ip by LC-MS/MS analysis; format: ADME, organism-based; settings: in vivo
[9] = Half life in female ICR mouse at 5 mg/kg, ip by LC-MS/MS analysis; format: ADME, organism-based; settings: in vivo
MV4-11 [10] = assay: Antiproliferative activity against human MV4-11 cells harboring MLL-AF4 assessed as cell growth inhibition incubated for 7 days by MTS assay; format: functional, cell-based; settings: MV4-11, 168 h
MOLM-14 = assay: Antiproliferative activity against human MOLM-14 cells harboring MLL-AF9 assessed as cell growth inhibition incubated for 7 days by MTS assay; format: functional, cell-based; settings: MOLM-14, 168 h
RS4-11 = assay: Antiproliferative activity against human RS4;11 cells harboring MLL-AF4 assessed as cell growth inhibition incubated for 7 days by MTS assay; format: functional, cell-based; settings: RS4-11, 168 h
MOLM-13 = assay: Antiproliferative activity against human MOLM-13 cells harboring MLL-AF9 assessed as cell growth inhibition incubated for 7 days by MTS assay; format: functional, cell-based; settings: MOLM-13, 168 h
REH [11] = assay: Antiproliferative activity against human REH cells assessed as cell growth inhibition incubated for 7 days by MTS assay; format: functional, cell-based; settings: 168 h
HL-60 = assay: Antiproliferative activity against human HL-60 cells assessed as cell growth inhibition incubated for 7 days by MTS assay; format: functional, cell-based; settings: HL-60, 168 h
[12] = Antiproliferative activity against human MINO cells assessed as cell growth inhibition incubated for 7 days by MTS assay; format: functional, cell-based; settings: 168 h
MV4-11 [13] = assay: Downregulation of MEIS1 expression level in human MV4-11 cells at 10 uM incubated for 48 hrs by qRT-PCR analysis; format: functional, cell-based
MV4-11 [14] = assay: Downregulation of HOXA9 expression level in human MV4-11 cells at 10 uM incubated for 48 hrs by qRT-PCR analysis; format: functional, cell-based
MV4-11 [15] = assay: Inhibition of menin protein expression in human MV-4-11 cells measured after 48 hrs incubation by Western blot analysis; format: functional, cell-based; settings: dose 1-37 µM
REH [16] = assay: Downregulation of HOXA9 expression level in human REH cells at 10 uM incubated for 48 hrs by qRT-PCR analysis; format: functional, cell-based
REH [17] = assay: Downregulation of MEIS1 expression level in human REH cells at 10 uM incubated for 48 hrs by qRT-PCR analysis; format: functional, cell-based
[18] = system: Acute myeloid leukemic cell; assay: Induction of cell differentiation in human acute myeloid leukemia patient-derived cells assessed as increase in CD11b at 150 nM incubated for 7 days by cytoFLEX flow cytometric analysis; format: functional, cell-based; settings: time 7.0 day
MV4-11 [19] = assay: Antiproliferative activity against human MV4-11 cells assessed as reduction in cell viability incubated for 7 days and measured after compound washout; format: functional, cell-based; settings: time 7.0 day
MV4-11 [20] = assay: Antiproliferative activity against human MV4-11 cells assessed as reduction in cell viability preincubated for 7 days and followed by compound washout and measured on day 14 after compound readdition; format: functional, cell-based; settings: time 21.0 day
MV4-11 [21] = assay: Antiproliferative activity against human MV4-11 cells assessed as reduction in cell viability at 100 nM preincubated for 7 days and followed by compound washout and measured on day 14 after compound readdition; format: functional, cell-based; settings: time 21.0 day
MV4-11 [22] = assay: Antiproliferative activity against human MV4-11 cells assessed as reduction in cell viability at 50 nM incubated for 7 days and measured after compound washout relative to control; format: functional; settings: time 7 day
MV4-11 [23] = assay: Antiproliferative activity against human MV4-11 cells assessed as reduction in cell viability at 80 nM preincubated for 7 days and followed by compound washout and measured on day 14 after compound readdition relative to control; format: functional; settings: time 21 day
[24] = Solubility of compound in water by HPLC analysis; format: physicochemical
MV4-11 [25] = assay: Antitumor activity against human MV4-11 cells xenografted in ip treated nu/nu mouse model assessed as tumor growth inhibition measured upto 15 days; format: functional, organism-based; settings: dose 10-20 mg/kg, time <= 15.0 day
MV4-11 [26] = assay: Antitumor activity against human MV4-11 cells xenografted in nu/nu mouse model assessed as tumor growth rate at 10 mg/kg, ip bid for 15 days measured twice a week during compound dosing by caliper method relative to control; format: functional; settings: time 15 day
MV4-11 [27] = assay: Antitumor activity against human MV4-11 cells xenografted in nu/nu mouse model assessed as tumor growth rate at 20 mg/kg, ip bid for 15 days measured twice a week during compound dosing by caliper method relative to control; format: functional; settings: time 15 day
[28] = Toxicity in nu/nu mouse model assessed as body weight loss at 10 to 20 mg/kg, ip bid for 15 days measured twice a week during compound dosing; format: organism-based; settings: in vivo, 360 h, dose 10-20 mg/kg, time 15 day
[29] = Cytotoxicity against human PBMC cells assessed as cell viability incubated for 7 days by MTS assay; format: toxicity, cell-based
MV4-11 [30] = assay: Suppression of MEN1 gene transcription in human MV4-11 cells incubated for 48 hrs by relative gene expression assay; format: functional, cell-based
[31] = Suppression of MEN1 gene transcription in human MV4-11 cells assessed as protein synthesis by measuring fold change at 10 uM incubated for 48 hrs relative to control; format: functional
[32] = Suppression of MEN1 gene transcription in human MV4-11 cells assessed as protein synthesis by measuring fold change at 10 uM incubated for 48 hrs in presence of 20 nM carfilzomib relative to control; format: functional
[33] = Suppression of MEN1 gene transcription in human MV4-11 cells assessed as protein synthesis by measuring fold change at 10 uM incubated for 12 hrs in presence of 50 ug/ml cycloheximide relative to control; format: functional
[34] = Suppression of MEN1 gene transcription in human MV4-11 cells assessed as protein synthesis by measuring fold change at 10 uM incubated for 24 hrs in presence of 50 ug/ml cycloheximide relative to control; format: functional
[35] = Suppression of MEN1 gene transcription in human MV4-11 cells assessed as protein synthesis by measuring fold change at 10 uM incubated for 36 hrs in presence of 50 ug/ml cycloheximide relative to control; format: functional
[36] = Suppression of MEN1 gene transcription in human MV4-11 cells assessed as protein synthesis by measuring fold change at 10 uM incubated for 48 hrs in presence of 50 ug/ml cycloheximide relative to control; format: functional

Chain of Menin/Histone-lysine N-methyltransferase MLL (O00255 whole entry): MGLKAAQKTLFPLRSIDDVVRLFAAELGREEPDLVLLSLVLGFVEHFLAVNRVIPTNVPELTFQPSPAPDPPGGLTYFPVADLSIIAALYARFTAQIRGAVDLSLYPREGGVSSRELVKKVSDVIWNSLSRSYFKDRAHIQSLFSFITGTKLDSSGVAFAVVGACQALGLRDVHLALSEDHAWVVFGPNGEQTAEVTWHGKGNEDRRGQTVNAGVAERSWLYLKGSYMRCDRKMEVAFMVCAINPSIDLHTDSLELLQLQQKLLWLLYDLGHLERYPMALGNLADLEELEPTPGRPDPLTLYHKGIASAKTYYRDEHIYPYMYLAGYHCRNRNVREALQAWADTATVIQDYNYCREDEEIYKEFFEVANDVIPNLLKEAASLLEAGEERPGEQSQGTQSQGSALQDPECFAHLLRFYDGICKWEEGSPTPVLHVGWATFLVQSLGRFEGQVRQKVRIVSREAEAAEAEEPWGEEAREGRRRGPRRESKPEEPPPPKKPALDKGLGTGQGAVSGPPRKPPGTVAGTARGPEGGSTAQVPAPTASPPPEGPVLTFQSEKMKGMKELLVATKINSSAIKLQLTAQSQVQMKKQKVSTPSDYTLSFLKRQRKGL
Chain of Menin/Histone-lysine N-methyltransferase MLL (Q03164 1-2718 partner limits assumed): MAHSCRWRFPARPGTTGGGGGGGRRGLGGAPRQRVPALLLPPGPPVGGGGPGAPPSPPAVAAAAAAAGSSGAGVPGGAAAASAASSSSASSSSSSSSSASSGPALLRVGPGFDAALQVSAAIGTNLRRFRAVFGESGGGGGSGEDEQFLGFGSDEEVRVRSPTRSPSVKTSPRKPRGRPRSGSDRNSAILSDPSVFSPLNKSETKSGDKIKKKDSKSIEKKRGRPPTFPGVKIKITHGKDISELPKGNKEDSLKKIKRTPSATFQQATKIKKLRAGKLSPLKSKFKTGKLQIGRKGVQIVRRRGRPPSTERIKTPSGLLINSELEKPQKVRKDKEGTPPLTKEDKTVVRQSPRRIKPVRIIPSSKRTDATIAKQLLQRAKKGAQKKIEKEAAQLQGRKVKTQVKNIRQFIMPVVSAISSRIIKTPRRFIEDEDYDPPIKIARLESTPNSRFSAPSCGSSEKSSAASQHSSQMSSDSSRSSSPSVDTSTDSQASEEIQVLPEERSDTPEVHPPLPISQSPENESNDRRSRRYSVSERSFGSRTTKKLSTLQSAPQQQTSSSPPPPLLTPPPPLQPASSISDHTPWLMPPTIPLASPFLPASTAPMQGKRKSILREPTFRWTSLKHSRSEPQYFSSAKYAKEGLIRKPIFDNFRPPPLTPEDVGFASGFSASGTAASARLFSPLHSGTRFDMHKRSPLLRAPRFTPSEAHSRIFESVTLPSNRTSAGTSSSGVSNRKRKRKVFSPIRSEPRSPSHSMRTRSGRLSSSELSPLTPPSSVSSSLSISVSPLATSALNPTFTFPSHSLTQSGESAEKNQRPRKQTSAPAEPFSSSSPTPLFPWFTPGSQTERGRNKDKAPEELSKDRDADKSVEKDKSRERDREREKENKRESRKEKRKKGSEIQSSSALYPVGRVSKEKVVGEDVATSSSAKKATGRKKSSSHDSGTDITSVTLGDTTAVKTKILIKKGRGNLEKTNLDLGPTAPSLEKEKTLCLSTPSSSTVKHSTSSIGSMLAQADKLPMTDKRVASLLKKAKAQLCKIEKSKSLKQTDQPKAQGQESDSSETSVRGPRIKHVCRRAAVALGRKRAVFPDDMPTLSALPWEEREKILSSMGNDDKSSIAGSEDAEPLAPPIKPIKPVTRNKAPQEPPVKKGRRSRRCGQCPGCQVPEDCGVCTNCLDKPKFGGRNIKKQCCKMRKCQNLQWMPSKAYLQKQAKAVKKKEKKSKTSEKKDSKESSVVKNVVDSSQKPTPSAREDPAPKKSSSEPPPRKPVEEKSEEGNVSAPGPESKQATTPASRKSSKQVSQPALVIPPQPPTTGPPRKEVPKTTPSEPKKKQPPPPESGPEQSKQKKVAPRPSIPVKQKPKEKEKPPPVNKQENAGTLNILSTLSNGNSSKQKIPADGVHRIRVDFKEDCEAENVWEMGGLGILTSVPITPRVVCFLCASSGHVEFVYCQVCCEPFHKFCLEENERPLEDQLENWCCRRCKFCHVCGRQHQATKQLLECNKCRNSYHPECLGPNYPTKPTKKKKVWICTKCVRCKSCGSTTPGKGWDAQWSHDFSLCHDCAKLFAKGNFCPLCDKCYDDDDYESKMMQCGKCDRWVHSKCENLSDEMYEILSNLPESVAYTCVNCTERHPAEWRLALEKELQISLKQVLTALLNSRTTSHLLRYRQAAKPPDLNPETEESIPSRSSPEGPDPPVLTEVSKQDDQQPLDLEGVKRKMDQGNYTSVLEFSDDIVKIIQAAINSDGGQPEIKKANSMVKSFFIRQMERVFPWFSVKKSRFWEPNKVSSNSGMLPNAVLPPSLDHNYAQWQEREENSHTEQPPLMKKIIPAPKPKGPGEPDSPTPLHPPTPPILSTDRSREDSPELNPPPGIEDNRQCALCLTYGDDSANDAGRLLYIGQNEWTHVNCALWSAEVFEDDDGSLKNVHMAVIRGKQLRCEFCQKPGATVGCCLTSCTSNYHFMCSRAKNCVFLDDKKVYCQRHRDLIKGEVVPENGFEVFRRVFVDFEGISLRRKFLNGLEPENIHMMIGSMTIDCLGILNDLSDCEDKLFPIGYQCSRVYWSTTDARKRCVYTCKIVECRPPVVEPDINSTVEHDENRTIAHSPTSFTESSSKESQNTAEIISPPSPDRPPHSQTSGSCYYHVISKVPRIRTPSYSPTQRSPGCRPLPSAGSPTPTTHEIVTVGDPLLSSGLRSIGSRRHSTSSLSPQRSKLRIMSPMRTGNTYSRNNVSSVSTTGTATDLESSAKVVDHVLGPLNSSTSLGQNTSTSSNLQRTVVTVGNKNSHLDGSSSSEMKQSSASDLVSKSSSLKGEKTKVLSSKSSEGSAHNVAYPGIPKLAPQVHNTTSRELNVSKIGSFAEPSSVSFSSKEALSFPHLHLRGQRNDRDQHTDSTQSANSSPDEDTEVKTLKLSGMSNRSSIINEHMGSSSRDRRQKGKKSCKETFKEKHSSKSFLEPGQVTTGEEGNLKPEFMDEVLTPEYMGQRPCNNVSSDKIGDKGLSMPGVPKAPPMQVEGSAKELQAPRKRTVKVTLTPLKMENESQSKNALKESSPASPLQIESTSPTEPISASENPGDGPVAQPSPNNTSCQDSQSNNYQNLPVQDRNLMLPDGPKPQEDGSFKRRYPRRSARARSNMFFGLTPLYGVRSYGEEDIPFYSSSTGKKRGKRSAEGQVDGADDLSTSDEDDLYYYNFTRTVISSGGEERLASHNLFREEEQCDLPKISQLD
Chain of Menin/Histone-lysine N-methyltransferase MLL (Q03164 2719-3969 partner limits assumed): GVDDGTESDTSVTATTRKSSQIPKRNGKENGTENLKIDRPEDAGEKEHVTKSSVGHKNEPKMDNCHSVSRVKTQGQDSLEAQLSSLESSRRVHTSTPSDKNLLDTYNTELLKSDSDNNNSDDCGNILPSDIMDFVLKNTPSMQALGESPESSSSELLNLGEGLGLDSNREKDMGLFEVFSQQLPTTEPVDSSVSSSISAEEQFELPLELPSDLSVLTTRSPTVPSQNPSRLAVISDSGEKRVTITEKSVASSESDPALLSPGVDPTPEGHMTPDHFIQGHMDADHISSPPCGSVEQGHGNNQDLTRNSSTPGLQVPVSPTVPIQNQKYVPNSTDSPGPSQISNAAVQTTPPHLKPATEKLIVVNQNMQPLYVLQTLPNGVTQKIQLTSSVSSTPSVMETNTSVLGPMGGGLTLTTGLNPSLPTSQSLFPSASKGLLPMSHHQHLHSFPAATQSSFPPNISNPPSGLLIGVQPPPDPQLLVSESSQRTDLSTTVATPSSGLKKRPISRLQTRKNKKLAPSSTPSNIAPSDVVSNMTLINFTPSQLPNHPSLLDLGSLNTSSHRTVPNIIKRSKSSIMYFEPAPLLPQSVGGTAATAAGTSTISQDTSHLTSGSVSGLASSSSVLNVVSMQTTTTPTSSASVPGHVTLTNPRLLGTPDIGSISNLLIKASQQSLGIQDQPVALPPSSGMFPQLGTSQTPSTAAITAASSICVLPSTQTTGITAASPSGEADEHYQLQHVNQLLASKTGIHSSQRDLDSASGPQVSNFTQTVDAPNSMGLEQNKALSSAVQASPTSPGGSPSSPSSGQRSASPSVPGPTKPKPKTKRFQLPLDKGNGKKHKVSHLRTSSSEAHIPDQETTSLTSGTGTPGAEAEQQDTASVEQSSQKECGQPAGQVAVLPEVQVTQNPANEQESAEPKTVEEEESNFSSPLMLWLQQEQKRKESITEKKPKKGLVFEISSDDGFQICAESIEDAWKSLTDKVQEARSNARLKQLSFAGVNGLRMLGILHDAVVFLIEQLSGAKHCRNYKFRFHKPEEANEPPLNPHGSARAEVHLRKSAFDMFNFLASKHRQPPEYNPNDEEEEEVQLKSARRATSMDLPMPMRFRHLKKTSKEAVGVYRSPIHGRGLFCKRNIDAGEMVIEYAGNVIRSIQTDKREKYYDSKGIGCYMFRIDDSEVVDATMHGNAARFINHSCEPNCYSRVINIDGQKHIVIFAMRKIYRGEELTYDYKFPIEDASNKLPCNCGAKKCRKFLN

IC50 [1]: 18.2 nM | IC50 (MV4-11 [2]): 30 nM | Tmax [4]: 0.25 h | Cmax [5]: 980 ng/mL | AUC(0-t) [6]: 1150 ng·h/mL | AUC(0-inf) [7]: 1230 ng·h/mL | MRT inf [8]: 1.85 h | half-life [9]: 1.59 h | IC50 (MV4-11 [10]): 49 nM | IC50 (MOLM-14): 103 nM | IC50 (RS4-11): 272 nM | IC50 (MOLM-13): 221 nM | IC50 (HL-60): > 3000 nM | solubility [24]: 1230 µg/mL (≈ 1590 µM)
Compound: CCN(C(=O)c1cc(F)ccc1Nc1cncnc1N1CCN(CC2CN(c3ccc(S(=O)(=O)C4CN(C(=O)/C=C/CN(C)C)C4)cc3)C2)C(C)C1)C(C)C (stereo not given)
IC50 (REH [3]): 8400 nM | IC50 (REH [11]): > 3000 nM | IC50 [12]: > 3000 nM | Activity (MV4-11 [13]): Active | Activity (MV4-11 [14]): Active | Activity (MV4-11 [15]): Dose-dependent-effect; Significantly Greater Inhibition At 10 Um Than That Of Sndx-5613 | Activity (REH [16]): Active; Little Impact Observed | Activity (REH [17]): Active; Little Impact Observed | Activity [18]: Active | Activity (MV4-11 [19]): inactive | Activity (MV4-11 [20]): Dose-dependent-effect | Activity (MV4-11 [21]): Active | Activity (MV4-11 [22]): 100% | Activity (MV4-11 [23]): 100% | Activity (MV4-11 [25]): Dose-dependent-effect | Activity (MV4-11 [26]): 55.64% | Activity (MV4-11 [27]): 35.85% | Activity [28]: Non-toxic | IC50 at 7 days [29]: > 3000 nM | Activity (MV4-11 [30]): Active | fold change (FC) [31]: 0.08 | fold change (FC) [32]: 0.14 | fold change (FC) [33]: 0.69 | fold change (FC) [34]: 0.31 | fold change (FC) [35]: 0.21 | fold change (FC) [36]: 0.25
